In patent publication US8871753B2, “Macrocyclic compounds and their use as kinase inhibitors” (Incyte Corporation, priority 2008, dated 2014):
Where a name gives a salt, the structure may show the parent alone.

Assays:
Type in all cases: biochemical
TYK2 = TYK2 (Homo sapiens, UniProt P29597); assay: TYK2 kinase inhibition (Table A1)
[1] = target: T1, human JAK3 (a.a. 781-1124) (Homo sapiens, UniProt P52333); assay: In vitro JAK kinase assay (HTRF, phosphorylation of a biotinylated peptide), JAK3; details: method AA1 (3 μM ATP) or AA2 (1000 μM ATP), not stated per value
T1 construct: JAK3 (a.a. 781-1124); His tag (N); made in house; host or cells: insect cells (baculovirus)
How it was run: (§1)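 Phosphorylation of a biotinylated peptide by the JAK kinase domain, detected by HTRF with Eu-Py20 and SA-APC. ATP was 90 μM for JAK1, 30 μM for JAK2 and 3 μM for JAK3. Reactions ran 1 h at room temperature and were stopped with EDTA, followed by 40 min antibody binding.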

[2] = target: T2, human JAK1 (a.a. 837-1142) (Homo sapiens, UniProt P23458); assay: In vitro JAK kinase assay (HTRF, phosphorylation of a biotinylated peptide), JAK1; details: method AA1 (90 μM ATP) or AA2 (1000 μM ATP), not stated per value; read-out: JAK1 IC50
T2 construct: human JAK1 (a.a. 837-1142); His tag (N); made in house; host or cells: insect cells (baculovirus)
How it was run: as §1

[3] = target: T3, human JAK2 (a.a. 828-1132) (Homo sapiens, UniProt O60674); assay: In vitro JAK kinase assay (HTRF, phosphorylation of a biotinylated peptide), JAK2; details: method AA1 (30 μM ATP) or AA2 (1000 μM ATP), not stated per value
T3 construct: JAK2 (a.a. 828-1132); His tag (N); made in house; host or cells: insect cells (baculovirus)
How it was run: as §1

[4] = target: T4, Recombinant Human Anaplastic Lymphoma Kinase (Homo sapiens, UniProt Q9UM73); assay: ALK HTRF kinase assay; details: compound at 500 nM or 1 mM; 90 μM ATP
T4 construct: purchased Invitrogen, Carlsbad, Calif
How it was run: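 Biotinylated peptide substrate, recombinant human ALK; detection via europium-chelate antibody to phosphotyrosine paired with streptavidin-APC. Potency expressed as IC50 from four-parameter curve fitting.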

T2 sequence (P23458 849-1154): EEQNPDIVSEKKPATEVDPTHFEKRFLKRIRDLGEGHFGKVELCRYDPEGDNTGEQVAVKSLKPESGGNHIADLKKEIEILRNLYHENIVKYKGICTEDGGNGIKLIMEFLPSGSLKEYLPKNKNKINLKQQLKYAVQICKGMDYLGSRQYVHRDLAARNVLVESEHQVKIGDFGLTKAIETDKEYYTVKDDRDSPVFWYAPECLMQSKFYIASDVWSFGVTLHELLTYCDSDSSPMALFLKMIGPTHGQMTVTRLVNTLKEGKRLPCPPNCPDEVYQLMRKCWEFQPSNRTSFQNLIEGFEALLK
TYK2, sequence (P29597 whole entry): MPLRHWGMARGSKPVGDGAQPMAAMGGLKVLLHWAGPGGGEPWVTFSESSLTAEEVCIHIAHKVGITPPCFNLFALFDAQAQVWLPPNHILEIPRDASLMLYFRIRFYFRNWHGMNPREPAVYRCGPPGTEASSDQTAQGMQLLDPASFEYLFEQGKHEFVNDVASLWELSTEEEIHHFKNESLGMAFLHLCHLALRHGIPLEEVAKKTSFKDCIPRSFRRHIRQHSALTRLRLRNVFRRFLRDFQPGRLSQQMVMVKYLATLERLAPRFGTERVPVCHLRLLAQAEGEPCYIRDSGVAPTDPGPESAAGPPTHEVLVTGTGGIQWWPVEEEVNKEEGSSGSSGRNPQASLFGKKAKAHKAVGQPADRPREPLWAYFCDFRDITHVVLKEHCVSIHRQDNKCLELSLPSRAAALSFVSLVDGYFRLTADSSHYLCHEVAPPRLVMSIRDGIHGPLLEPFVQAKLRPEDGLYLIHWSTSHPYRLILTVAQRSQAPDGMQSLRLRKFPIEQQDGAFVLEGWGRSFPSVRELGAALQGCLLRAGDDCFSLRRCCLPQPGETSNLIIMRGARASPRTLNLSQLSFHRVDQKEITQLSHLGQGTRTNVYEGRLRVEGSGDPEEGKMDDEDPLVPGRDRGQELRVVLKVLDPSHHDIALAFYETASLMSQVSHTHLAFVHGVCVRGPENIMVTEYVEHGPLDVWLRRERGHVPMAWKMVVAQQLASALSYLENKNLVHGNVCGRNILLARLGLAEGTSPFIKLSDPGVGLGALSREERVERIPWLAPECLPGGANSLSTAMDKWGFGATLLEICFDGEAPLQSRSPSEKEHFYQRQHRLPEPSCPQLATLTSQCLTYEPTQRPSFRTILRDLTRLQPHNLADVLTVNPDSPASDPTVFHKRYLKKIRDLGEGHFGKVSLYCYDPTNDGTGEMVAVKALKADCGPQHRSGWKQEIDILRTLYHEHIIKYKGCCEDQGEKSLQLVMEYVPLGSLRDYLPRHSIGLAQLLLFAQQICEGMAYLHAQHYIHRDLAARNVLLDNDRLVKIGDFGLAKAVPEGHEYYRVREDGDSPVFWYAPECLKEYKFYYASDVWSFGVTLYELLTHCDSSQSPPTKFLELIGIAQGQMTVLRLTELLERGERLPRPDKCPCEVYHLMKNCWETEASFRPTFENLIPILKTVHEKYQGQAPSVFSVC
T4 sequence (Q9UM73 19-1620): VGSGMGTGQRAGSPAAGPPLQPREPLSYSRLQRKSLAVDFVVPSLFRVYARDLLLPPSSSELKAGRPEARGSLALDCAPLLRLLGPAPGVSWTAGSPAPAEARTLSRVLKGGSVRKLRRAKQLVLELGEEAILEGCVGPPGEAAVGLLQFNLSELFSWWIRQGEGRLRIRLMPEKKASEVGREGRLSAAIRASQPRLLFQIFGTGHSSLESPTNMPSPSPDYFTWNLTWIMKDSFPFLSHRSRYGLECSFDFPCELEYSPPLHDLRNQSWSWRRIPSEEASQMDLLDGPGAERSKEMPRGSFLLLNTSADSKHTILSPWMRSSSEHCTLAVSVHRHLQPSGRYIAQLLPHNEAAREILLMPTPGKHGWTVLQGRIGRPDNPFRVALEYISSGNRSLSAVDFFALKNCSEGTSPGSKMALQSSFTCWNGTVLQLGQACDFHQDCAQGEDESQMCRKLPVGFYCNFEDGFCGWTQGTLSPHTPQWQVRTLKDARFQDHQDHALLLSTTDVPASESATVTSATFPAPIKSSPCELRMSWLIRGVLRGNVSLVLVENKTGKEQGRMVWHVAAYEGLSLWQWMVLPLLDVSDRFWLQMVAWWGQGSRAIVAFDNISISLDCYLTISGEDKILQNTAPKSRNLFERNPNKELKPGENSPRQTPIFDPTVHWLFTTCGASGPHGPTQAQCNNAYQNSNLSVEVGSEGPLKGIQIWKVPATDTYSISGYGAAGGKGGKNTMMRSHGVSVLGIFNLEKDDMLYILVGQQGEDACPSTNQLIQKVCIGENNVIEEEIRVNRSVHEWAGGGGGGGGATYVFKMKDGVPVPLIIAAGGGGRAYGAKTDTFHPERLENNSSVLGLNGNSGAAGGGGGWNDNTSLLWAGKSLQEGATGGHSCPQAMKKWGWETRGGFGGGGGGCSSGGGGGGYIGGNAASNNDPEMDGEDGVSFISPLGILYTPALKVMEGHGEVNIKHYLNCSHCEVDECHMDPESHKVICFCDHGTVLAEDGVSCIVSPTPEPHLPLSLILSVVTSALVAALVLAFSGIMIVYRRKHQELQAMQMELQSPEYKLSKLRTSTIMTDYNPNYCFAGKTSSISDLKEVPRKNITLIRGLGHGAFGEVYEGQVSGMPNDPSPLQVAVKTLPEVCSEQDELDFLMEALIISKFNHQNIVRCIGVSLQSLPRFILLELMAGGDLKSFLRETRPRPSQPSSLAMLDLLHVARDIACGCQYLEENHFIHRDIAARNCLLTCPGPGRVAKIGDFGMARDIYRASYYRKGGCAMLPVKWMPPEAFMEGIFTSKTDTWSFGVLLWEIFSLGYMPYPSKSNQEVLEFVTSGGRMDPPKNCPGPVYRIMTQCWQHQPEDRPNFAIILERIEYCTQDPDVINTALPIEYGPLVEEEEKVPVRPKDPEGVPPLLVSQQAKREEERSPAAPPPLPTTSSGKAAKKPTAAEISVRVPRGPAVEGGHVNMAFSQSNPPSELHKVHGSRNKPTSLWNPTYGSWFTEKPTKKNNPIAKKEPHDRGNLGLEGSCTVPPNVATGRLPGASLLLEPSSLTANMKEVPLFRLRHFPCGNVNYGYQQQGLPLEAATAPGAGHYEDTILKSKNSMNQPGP
T1 sequence (P52333 781-1124): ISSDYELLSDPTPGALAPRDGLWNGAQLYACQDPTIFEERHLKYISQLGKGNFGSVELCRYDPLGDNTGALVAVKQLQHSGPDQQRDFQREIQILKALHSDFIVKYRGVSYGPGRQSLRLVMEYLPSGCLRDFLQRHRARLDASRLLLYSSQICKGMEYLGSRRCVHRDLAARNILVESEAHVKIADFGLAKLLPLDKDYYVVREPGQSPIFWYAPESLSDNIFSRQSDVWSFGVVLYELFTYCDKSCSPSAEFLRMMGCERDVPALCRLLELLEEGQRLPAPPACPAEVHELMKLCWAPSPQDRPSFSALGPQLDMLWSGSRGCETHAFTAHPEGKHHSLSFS
T3 sequence (O60674 828-1132): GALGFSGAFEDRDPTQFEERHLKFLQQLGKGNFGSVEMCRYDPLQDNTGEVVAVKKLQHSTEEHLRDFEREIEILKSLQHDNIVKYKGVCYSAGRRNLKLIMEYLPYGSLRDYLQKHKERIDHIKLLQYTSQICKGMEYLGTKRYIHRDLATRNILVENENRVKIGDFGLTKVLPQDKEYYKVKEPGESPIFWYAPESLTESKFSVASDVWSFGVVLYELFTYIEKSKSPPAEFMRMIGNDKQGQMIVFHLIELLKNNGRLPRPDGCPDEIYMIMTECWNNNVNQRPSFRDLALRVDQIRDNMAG

| Compound | IC50 (TYK2) [nM] | IC50 [1] [nM] | IC50 [2] [nM] | IC50 [3] [nM] | ALK % of inhibition at a concentration of 500 nM or 1 mM [4] [%] |
| --- | --- | --- | --- | --- | --- |
| O=C(Nc1ccc2cc1CCc1cccc(c1)Nc1ncc(Cl)c(n1)N2)C1CCN(C(=O)c2ccccc2)CC1 [Example A30, 1-Benzoyl-N-[6-chloro-2,4,8,22-tetraazatetracyclo[14.3.1.1(3,7).1(9,13)]docosa-1(20),3(22),4,6,9(21),10,12,16,18-nonaen-12-yl]piperidine-4-carboxamide trifluoroacetate] | 84 | 110 | 28 | 45 | 34 |
| O=C(Nc1ccc2cc1CCc1cccc(c1)Nc1ncc(Cl)c(n1)N2)C1CCN(C(=O)c2ccc3c(c2)OCO3)CC1 [Example A31, 1-(1,3-Benzodioxol-5-ylcarbonyl)-N-[6-chloro-2,4,8,22-tetraazatetracyclo[14.3.1.1(3,7).1(9,13)]docosa-1(20),3(22),4,6,9(21),10,12,16,18-nonaen-12-yl]piperidine-4-carboxamide trifluoroacetate] | 115 | 108 | 42 | 49 | 26 |
| O=C(Nc1ccc2cc1CCc1cccc(c1)Nc1ncc(Cl)c(n1)N2)C1CCN(C(=O)c2ccco2)CC1 [Example A32, N-[6-Chloro-2,4,8,22-tetraazatetracyclo[14.3.1.1(3,7).1(9,13)]docosa-1(20), 3(22),4,6,9(21),10,12,16,18-nonaen-12-yl]-1-(2-furoyl)piperidine-4-carboxamide trifluoroacetate] | 66 | 35 | 30 | 29 | 30 |
| N#Cc1ccc(C(=O)N2CCC(C(=O)Nc3ccc4cc3CCc3cccc(c3)Nc3ncc(Cl)c(n3)N4)CC2)cc1 [Example A33, N-[6-Chloro-2,4,8,22-tetraazatetracyclo[14.3.1.1(3,7).1(9,13)]docosa-1(20), 3(22),4,6,9(21),10,12,16,18-nonaen-12-yl]-1-(4-cyanobenzoyl)piperidine-4-carboxamide trifluoroacetate] | 75 | 102 | 30 | 38 | 26 |
| Cc1noc(C)c1C(=O)N1CCC(C(=O)Nc2ccc3cc2CCc2cccc(c2)Nc2ncc(Cl)c(n2)N3)CC1 [Example A34, N-[6-Chloro-2,4,8,22-tetraazatetracyclo[14.3.1.1(3,7).1(9,13)]docosa-1(20), 3(22),4,6,9(21),10,12,16,18-nonaen-12-yl]-1-[(3,5-dimethylisoxazol-4-yl)carbonyl]piperidine-4-carboxamide trifluoroacetate] | 343 | > 1000 | 446 | 220 | 5 |
| O=C(Nc1ccc2cc1CCc1cccc(c1)Nc1ncc(Cl)c(n1)N2)C1CCN(C(=O)Cc2ccccc2)CC1 [Example A35, N-[6-Chloro-2,4,8,22-tetraazatetracyclo[14.3.1.1(3,7).1(9,13)]docosa-1(20),3(22),4,6,9(21),10,12,16,18-nonaen-12-yl]-1-(phenylacetyl)piperidine-4-carboxamide trifluoroacetate] | 228 | 82 | 42 | 62 | 38 |
| O=C(Nc1ccc2cc1CCc1cccc(c1)Nc1ncc(Cl)c(n1)N2)C1CCN(C(=O)Nc2ccccc2)CC1 [Example A36, N(4)-[6-Chloro-2,4,8,22-tetraazatetracyclo[14.3.1.1(3,7).1(9,13)]docosa-1(20),3(22),4,6,9(21),10,12,16,18-nonaen-12-yl]-N(1)-phenylpiperidine-1,4-dicarboxamide trifluoroacetate] | 27 | 26 | 2.4 | 6.7 | 48 |
| COc1cccc(NC(=O)N2CCC(C(=O)Nc3ccc4cc3CCc3cccc(c3)Nc3ncc(Cl)c(n3)N4)CC2)c1 [Example A38, N(4)-[6-Chloro-2,4,8,22-tetraazatetracyclo[14.3.1.1(3,7).1(9,13)]docosa-1(20),3(22),4,6,9(21),10,12,16,18-nonaen-12-yl]-N(1)-(3-methoxyphenyl)piperidine-1,4-dicarboxamide trifluoroacetate] | 48 | 46 | 6.6 | 16 | 55 |
| CSc1ccccc1NC(=O)N1CCC(C(=O)Nc2ccc3cc2CCc2cccc(c2)Nc2ncc(Cl)c(n2)N3)CC1 [Example A39, N(4)-[6-Chloro-2,4,8,22-tetraazatetracyclo[14.3.1.1(3,7).1(9,13)]docosa-1(20),3(22),4,6,9(21),10,12,16,18-nonaen-12-yl]-N(1)-[2-(methylthio)phenyl]piperidine-1,4-dicarboxamide trifluoroacetate] | 77 | 66 | 19 | 36 | 39 |
